Test results published in publication PMC8303187, “Anti-Inflammatory Effects of Compounds from Cudrania tricuspidata in HaCaT Human Keratinocytes” (International Journal of Molecular Sciences, 2021).

Assays:
Assay type in all cases: cell-based, human
[1] = system: p38 phosphorylation in HaCaT cells; assay: p38 phosphorylation in TNF-α + IFN-γ-treated HaCaT cells (Western blotting); conditions: HaCaT cells pretreated 3 h, then TNF-α + IFN-γ (20 ng/mL) 6 h; Western blot
Procedure: (§1) Stimulation of keratinocytes with TNF-α + IFN-γ upregulates various MAPK signaling pathways. To evaluate the anti-inflammatory effects of the six compounds from C. tricuspidata on the MAPK pathway, Western blotting analysis was used to determine the phosphorylation levels of JNK1/2, ERK1/2, and p38 in TNF-α + IFN-γ-treated HaCaT cells. Cells were pretreated with the six compounds from C. tricuspidata at the indicated concentrations for 3 h, and then stimulated with TNF-α + IFN-γ (20 ng/mL) for either 15 min, 2 h, or 6 h. Following the treatment with TNF-α + IFN-γ for 2 h, the phosphorylation of JNK1/2 was not inhibited by any of the six compounds (Figure 6A,B). After 15 min of treatment with TNF-α + IFN-γ, ERK1/2 phosphorylation was inhibited only by compound 14 (Figure 6C,D). The phosphorylation of p38 was inhibited only by compounds 13 and 4 after 6 h of treatment with TNF-α + IFN-γ (Figure 6E,F). […]
(§2) Figure 6 Effect of the six compounds from C. tricuspidata on JNK-1/2, ERK-1/2, and p38 phosphorylation in HaCaT cells. […] Cell extracts were analyzed using Western blotting and antibodies specific for phosphorylated JNK1/2 (p-JNK1/2), p-ERK1/2, or p-p38. […] Immunoblots were quantified using ImageJ software. The band intensity was quantified and normalized to each total protein concentration. * p < 0.05, ** p < 0.01, and *** p < 0.001 compared with TNF-α + IFN-γ only. […]

[2] = system: COX-2 protein expression in HaCaT cells; assay: COX-2 protein expression in TNF-α + IFN-γ-treated HaCaT cells (Western blotting); conditions: HaCaT cells pre-incubated 3 h (5–80 μM), then TNF-α + IFN-γ (20 ng/mL) 24 h; Western blot
From the text: (§3) ICAM-1 is expressed in keratinocytes and is critical for the development of many skin diseases, such as contact dermatitis and lichen planus. Cyclooxygenase (COX) is the enzyme responsible for the conversion of arachidonic acid to prostaglandin H2, which is the main step in the prostaglandin synthesis pathway. COX-2 expression plays a key role in skin inflammation. In this experiment, the anti-inflammatory effects of the six compounds from C. tricuspidata on the expression of pro-inflammatory proteins were investigated in TNF-α + IFN-γ-treated HaCaT cells. Briefly, cells were pre-incubated for 3 h with or without the six compounds from C. tricuspidata (5–80 μM) and were subsequently challenged with TNF-α + IFN-γ (20 ng/mL) for 24 h. […]
(§4) Figure 4 Protein expression levels of COX-2 (A,B) and ICAM-1 (C,D) in TNF-α + IFN-γ-treated HaCaT cells. […] The immunoblot was quantified using ImageJ software. […]
(§5) Cells were harvested and pelleted via centrifugation at 200× g for 3 min, washed with PBS, and lysed in 20 mM Tris-HCl buffer (pH 7.4) containing a protease inhibitor mixture (0.1 mM phenylmethanesulfonyl fluoride, 5 mg/mL aprotinin, 5 mg/mL pepstatin A, and 1 mg/mL chymostatin). The protein concentration was determined using a protein assay dye reagent concentrate (#5000006; Bio-Rad Laboratories, Hercules, CA, USA). […]

[3] = system: ICAM-1 protein expression in HaCaT cells; assay: ICAM-1 protein expression in TNF-α + IFN-γ-treated HaCaT cells (Western blotting); conditions: HaCaT cells pre-incubated 3 h (5–80 μM), then TNF-α + IFN-γ (20 ng/mL) 6 h; Western blot
From the text: as §3, with “[…] Previous studies have reported that compound 6 inhibits” for “Briefly, cells were pre-incubated for 3 h with or without”, “expression of COX-2 [55]; however, this study is the first to report the inhibition of COX-2 protein production by compound 6 in HaCaT cells.” for “six compounds from C. tricuspidata (5–80 μM) and were subsequently challenged with TNF-α + IFN-γ (20 ng/mL) for 24 h.”
as §4, §5

[4] = system: ERK1/2 phosphorylation in HaCaT cells; assay: ERK1/2 phosphorylation in TNF-α + IFN-γ-treated HaCaT cells (Western blotting); conditions: HaCaT cells pretreated 3 h, then TNF-α + IFN-γ (20 ng/mL) 15 min; Western blot
Procedure: as §1, §2

| SMILES | phosphorylation of p38 [1] | expression level of COX-2 [2] | ICAM-1 expression [3] | ERK1/2 phosphorylation [4] |
| --- | --- | --- | --- | --- |
| CC(C)=CCc1c(O)cc2c(c1O)C(=O)C[C@@H](c1ccc(O)cc1O)O2 [Compound 4, cudraflavanone B] | inhibited | – | – | – |
| CC(C)=CCc1c(O)cc2oc(-c3ccc(O)cc3O)c(CC=C(C)C)c(=O)c2c1O [Compound 6, cudraflavone C] | – | decreased | particularly effective | – |
| C=CC(C)(C)c1c(OC)cc2oc3cc(O)c(O)cc3c(=O)c2c1O [Compound 13, 1,6,7-trihydroxy-2-(1,1-dimethyl-2-propenyl)-3-methoxyxanthone] | inhibited | – | – | – |
| C=CC(C)(C)c1c(O)cc(O)c2c(=O)c3cc(O)c(O)cc3oc12 [Compound 14, cudratricusxanthone L] | – | decreased | particularly effective | inhibited |
